Data as given in the supplement of paper PMC10307832.

How the values were obtained:
Test in all cases: relative viability (nuclei count vs DMSO), 5 days (fraction); higher = more cells survive
Vismodegib + Linsitinib = compound: CS(=O)(=O)c1ccc(C(=O)Nc2ccc(Cl)c(-c3ccccn3)c2)c(Cl)c1 [Vismodegib] + C[C@]1(O)C[C@@H](c2nc(-c3ccc4ccc(-c5ccccc5)nc4c3)c3c(N)nccn32)C1 [Linsitinib] (partner 1 µM)
How it was run: (§1)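 Values are medians from duplicate plates. Each reflects relative viability, defined as the nuclei count of treated wells over that of vehicle wells. Lung cancer cell lines in 1536-well plates were pin-tool dosed one day after seeding with one drug alone or with a fixed anchor-drug dose plus five library-drug doses (not always all listed) in √10 steps, then fixed, stained and imaged at 4× after 5 days.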

Ruxolitinib + Luminespib = compound: N#CC[C@H](C1CCCC1)n1cc(-c2ncnc3[nH]ccc23)cn1 [Ruxolitinib] + CCNC(=O)c1noc(-c2cc(C(C)C)c(O)cc2O)c1-c1ccc(CN2CCOCC2)cc1 [Luminespib] (partner 0.01 µM)
How it was run: as §1

Ruxolitinib + Pemetrexed = compound: N#CC[C@H](C1CCCC1)n1cc(-c2ncnc3[nH]ccc23)cn1 [Ruxolitinib] + Nc1nc2[nH]cc(CCc3ccc(C(=O)N[C@@H](CCC(=O)O)C(=O)O)cc3)c2c(=O)[nH]1 [Pemetrexed] (partner 0.2 µM)
How it was run: as §1

Ruxolitinib + OSI-027 = compound: N#CC[C@H](C1CCCC1)n1cc(-c2ncnc3[nH]ccc23)cn1 [Ruxolitinib] + COc1cccc2cc(-c3nc([C@H]4CC[C@H](C(=O)O)CC4)n4ncnc(N)c34)[nH]c12 [OSI-027] (partner 0.5 µM)
How it was run: as §1

Cell Line	relative viability (Vismodegib + Linsitinib; first compound 0.08 µM)	relative viability (Vismodegib + Linsitinib; first compound 0.253 µM)	relative viability (Vismodegib + Linsitinib; first compound 0.8 µM)	relative viability (Vismodegib + Linsitinib; first compound 2.53 µM)	relative viability (Vismodegib + Linsitinib; first compound 8 µM)	relative viability (Ruxolitinib + Luminespib; first compound 0.08 µM)	relative viability (Ruxolitinib + Luminespib; first compound 0.253 µM)	relative viability (Ruxolitinib + Luminespib; first compound 0.8 µM)	relative viability (Ruxolitinib + Luminespib; first compound 2.53 µM)	relative viability (Ruxolitinib + Luminespib; first compound 8 µM)	relative viability (Ruxolitinib + Pemetrexed; first compound 0.08 µM)	relative viability (Ruxolitinib + Pemetrexed; first compound 0.253 µM)	relative viability (Ruxolitinib + Pemetrexed; first compound 0.8 µM)	relative viability (Ruxolitinib + Pemetrexed; first compound 2.53 µM)	relative viability (Ruxolitinib + Pemetrexed; first compound 8 µM)	relative viability (Ruxolitinib + OSI-027; first compound 0.08 µM)	relative viability (Ruxolitinib + OSI-027; first compound 0.253 µM)	relative viability (Ruxolitinib + OSI-027; first compound 0.8 µM)	relative viability (Ruxolitinib + OSI-027; first compound 2.53 µM)	relative viability (Ruxolitinib + OSI-027; first compound 8 µM)
NCI-H1734	0.878	0.831	0.878	0.825	1.01	0.167	0.197	0.198	0.162	0.185	0.399	0.366	0.437	0.369	0.456	0.586	0.491	0.671	0.417	0.637
NCI-H1755	0.926	0.969	1.02	1	0.999	0.452	0.45	0.699	0.351	0.362	0.459	0.448	0.414	0.407	0.42	0.748	0.732	0.683	0.606	0.566
NCI-H1792	0.532	0.558	0.409	0.572	0.503	0.407	0.447	0.473	0.517	0.434	0.883	0.608	0.778	0.564	0.425	0.694	0.624	0.675	0.529	0.6
NCI-H1793		0.701	0.903	1.04	0.824	0.221	0.204	0.169	0.156	0.136	0.835	0.938	1.15	1.06	0.664	0.346	0.239	0.374	0.253	0.26
NCI-H1915	1.11	1.15	1.06	1.1	1.1	0.711	0.762	0.83	0.578	0.503	0.512	0.501	0.515	0.518	0.439	0.622	0.619	0.663	0.463	0.464
NCI-H1944	1.15	1.33	1.16	1.19	1.2	0.696	0.628	0.723	0.73	0.716	0.671	0.68	0.651	0.65	0.694	0.398	0.38	0.368	0.374	0.408
NCI-H1975	0.87	0.919	0.975	0.908	0.977	0.172	0.191	0.241	0.232	0.153	0.283	0.334	0.329	0.318	0.266	0.734	0.699	0.639	0.485	0.473
NCI-H1993	0.737	0.816	0.669	0.677	0.775	0.758	0.784	0.863	0.508	0.803	0.662	0.525	0.618	0.633	0.621	0.535	0.549	0.538	0.584	0.541
NCI-H2009	1.14	1.18	1.19	1.16	1.26	0.99	1.1	0.99	0.93	0.817	1.03	1.03	1.03	0.936	0.745	0.668	0.609	0.789	0.54	0.281
NCI-H2023	0.596	0.662	0.675	0.579	0.618	0.73	0.74	0.674	0.438	0.568	0.264	0.271	0.23	0.233	0.23	0.455	0.298	0.556	0.343	0.411
NCI-H2085	0.843	0.874	0.957	0.86	0.52	0.418	0.48	0.486	0.403	0.352	0.918	0.825	1.09	0.783	0.653	0.674	0.633	0.745	0.672	0.647
NCI-H2087	1	0.916	0.97	0.934	0.896	0.158	0.15	0.172	0.233	0.17	0.685		0.726	0.703	0.652	0.488	0.413	0.585	0.478	0.642
NCI-H2126	0.667	0.711	0.638	0.762	0.677	0.879	0.922	1.13	0.933	0.784	0.757	0.736	0.789	0.721	0.663	0.758	0.664	0.74	0.794	0.689
NCI-H2228	0.972	0.855	0.835	0.467	0.763	0.131	0.146	0.118	0.144	0.148	0.332	0.342	0.318	0.324	0.321	0.629	0.419	0.743	0.446	0.289
NCI-H2347	0.902	0.997	0.857	0.962	1.04	0.519	0.456	0.41	0.302	0.676	0.459	0.407	0.451	0.406	0.434	0.438	0.377	0.451	0.397	0.486
NCI-H2405		0.859	0.806	0.776	1.07		0.654	0.838	0.481	0.476	1.07	1.11	1.13	0.895	0.592		0.503	0.684	0.623	0.468
